# Results: patent publication US20130189255A1, “FUSIONS AND CONJUGATES OF INSULINOTROPIC AGENTS” (GLAXO GROUP LIMITED, priority 2008, published 2013)
# “Also recorded” adds a separate entry of the source. Where two headings read alike, the source gives them in different places. Marks after values point to notes of the source that are not given here.
# Tests used:
# [1] = In solution state by SEC MALLS; type: physicochemical; conditions: Superdex 200, 20 mM citrate, 0.1M NaCl
# Method: The aim of this experiment was to determine the in solution state of DAT0115, DAT0117 and DAT0120 by SEC MALLS. Samples were purified and dialysed into appropriate buffer (PBS) and filtered after dialysis, concentration was determined and adjusted to 1 mg/ml. BSA and HSA were purchased from Sigma and used without further purification. Shimadzu LC-20AD Prominence HPLC system with an autosampler (SIL-20A) and SPD-20A Prominence UV/Vis detector was connected to Wyatt Mini Dawn Treos (MALLS, multi-angle laser light scattering detector) and Wyatt Optilab rEX DRI (differential refractive index) detector. The detectors were connected in the following order—LS—UV—RI. Both RI and LS instruments operated at a wavelength of 488 nm. […] The traces are then analysed using ASTRA software, and the signals are normalised aligned and corrected for band broadening following manufacturer's instructions. […] The dilution that takes place on the column is about 10 fold, so the concentration at which in-solution state is determined is 100 ug/ml, or about 8 uM dAb. […] 16, 1093-1099 (1948)]: The calculations were performed automatically by ASTRA software, resulting in a plot with molar mass determined for eath of the slices [Astra manual]. […]
# db/db mice = experiment: Oral glucose tolerance test (OGTT) in db/db mouse model of type II diabetes; type: in vivo
# From the text: Animals were sorted by decreasing glucose levels three days prior to the start of the experiment and then blocked. One animal within each block was then assigned to each of the 26 study groups. This ensured similar mean starting glucose level in each of the study groups.
# [2] = mouse, in vivo, 1 mg/kg
# Method: This was followed by ion exchange chromotography on a Resource S column using a 0-1M salt gradient in 20 mM acetate pH5.0. Fractions containing the desired protein were then combined and buffer exchanged into 100 mM NaCl, 20 mM citrate pH6.2. Protein was filter sterilised, buffer exchanged and endotoxin removed ant tested prior to use in vivo. […] At predose, 0.25, 0.5, 1, 4, 7, 12, 24, 36, 48 and 60 hours after dosing for the iv doses and predose, 0.5, 1, 4, 7, 12, 24, 36, 48 and 60 hours after dosing for the sc doses blood samples were collected by terminal bleed and plasma prepared. Plasma samples were frozen and later defrosted for analysis of DAT0115, DAT0116 or DAT0117 levels as appropriate by solid phase extraction and LC/MS/MS to detect the presence of a fragment of the protein (from the exendin-4 section of the protein). Calculated plasma levels were then used to fit pharmacokinetic parameters using WinNonLin software. Half life after subcutaneous and intravenous administration and bioavailability is outlined in the table below. It was concluded from the results (see table 7 below) that all three compounds show desirable pharmacokinetic parameters in a mouse model of type II diabetes.
# [3] = rat, in vivo
# Method: This was followed by ion exchange chromotography on a Resource S column using a 0-1M salt gradient in 20 mM acetate pH5.0. Fractions containing the desired protein were then combined and buffer exchanged into 100 mM NaCl, 20 mM citrate pH6.2. Protein was filter sterilised, buffer exchanged and Qced prior to use in vivo.
# Calculated plasma levels were then used to fit pharmacokinetic parameters using WinNonLin software. Half life after subcutaneous and intravenous administration and bioavailability is outlined in the table 8 below. It was concluded from the results that all three compounds show desirable pharmacokinetic parameters in rat.
# CSA = CSA (Macaca fascicularis, UniProt A2V9Z4); experiment: Surface plasmon resonance (Biacore, streptavidin chip with biotinylated serum albumin), CSA; type: binding, cynomolgus monkey; conditions: Biacore SA chip, HBS-EP buffer; read-out: Affinity (KD) to CSA
# Sequence of CSA (A2V9Z4 25-608): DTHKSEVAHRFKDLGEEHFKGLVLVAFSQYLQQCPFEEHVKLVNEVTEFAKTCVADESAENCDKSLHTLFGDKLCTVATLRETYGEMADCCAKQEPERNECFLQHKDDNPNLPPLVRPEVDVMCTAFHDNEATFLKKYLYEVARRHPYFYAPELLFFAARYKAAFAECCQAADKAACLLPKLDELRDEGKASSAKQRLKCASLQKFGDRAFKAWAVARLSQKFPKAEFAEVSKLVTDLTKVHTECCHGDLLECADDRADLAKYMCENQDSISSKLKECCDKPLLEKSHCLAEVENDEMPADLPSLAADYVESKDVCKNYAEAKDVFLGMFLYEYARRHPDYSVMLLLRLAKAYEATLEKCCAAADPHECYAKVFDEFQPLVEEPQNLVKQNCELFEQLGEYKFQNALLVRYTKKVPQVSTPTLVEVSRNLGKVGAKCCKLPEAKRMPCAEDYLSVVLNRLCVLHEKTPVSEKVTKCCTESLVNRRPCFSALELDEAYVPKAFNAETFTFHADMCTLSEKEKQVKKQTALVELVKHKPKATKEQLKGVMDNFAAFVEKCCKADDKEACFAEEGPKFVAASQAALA
# Method: (§1) The analysis was performed using a streptavidin chip (SA) coated with biotinylated serum albumin. 200-1000 resonance units (RUs) of each serum albumin was immobilised on the chip. Flow cell 1 was uncoated, flow cell 2 was coated with HSA, flow cell 3 was coated with RSA and flow cell 4 was coated with CSA. A range of concentrations of fusion was prepared (in the range 15.6 nM to 2 μM by dilution into BIACORE HBS-EP buffer (0.01M HEPES, pH7.4, 0.15M NaCl, 3 mM EDTA, 0.005% surfactant P20) and flowed across the BIACORE chip.
# (§2) Affinity (KD) was calculated from the BIACORE traces by fitting on-rate and off-rate curves to traces generated by concentrations of dAb in the region of the KD.
# HSA = HSA (Homo sapiens, UniProt P02768); type: binding
# Method: as §1, §2
substance,measurement,setting,value
Exendin 4 (G4S linker)3 DOM7h-14 dAb fusion [DAT0115],in-solution state (self association),[1]; pH6.2,eluted in a single peak; also recorded: significantly less (and possibly no) self association
same,Mw determined across the peak (SEC MALLS),"[1]; pH6.2, 0.5 ml/min, expected monomer 16.9 kDa",17.4 kDa
same,timepoints out to which glucose AUC was significantly decreased compared to vehicle,db/db mice; 0.1 mg/Kg and 0.3 mg/Kg doses sc,≤ 24 h
same,percentage reduction in glucose AUC compared to vehicle,"db/db mice; 0.1 mg/kg sc, OGTT +5 hrs relative to dosing",60%*
same,percentage reduction in glucose AUC compared to vehicle,"db/db mice; 0.1 mg/kg sc, OGTT +24 hrs",36%*
same,percentage reduction in glucose AUC compared to vehicle,"db/db mice; 0.1 mg/kg sc, OGTT +48 hrs",28%
same,percentage reduction in glucose AUC compared to vehicle,"db/db mice; 0.1 mg/kg sc, OGTT +72 hrs",16%
same,percentage reduction in glucose AUC compared to vehicle,"db/db mice; 0.1 mg/kg sc, OGTT +96 hrs",−12%
same,percentage reduction in glucose AUC compared to vehicle,"db/db mice; 0.3 mg/kg sc, OGTT +24 hrs",59%*
same,percentage reduction in glucose AUC compared to vehicle,"db/db mice; 0.3 mg/kg sc, OGTT +48 hrs",26%
same,percentage reduction in glucose AUC compared to vehicle,"db/db mice; 0.3 mg/kg sc, OGTT +72 hrs",26%
same,timepoints out to which glucose AUC was significantly decreased compared to vehicle,db/db mice; 1 mg/Kg dose sc,≤ 72 h
same,percentage reduction in glucose AUC compared to vehicle,"db/db mice; 1 mg/kg sc, OGTT +5 hrs",76%*
same,percentage reduction in glucose AUC compared to vehicle,"db/db mice; 1 mg/kg sc, OGTT +24 hrs",50%*
same,percentage reduction in glucose AUC compared to vehicle,"db/db mice; 1 mg/kg sc, OGTT +48 hrs",37%*
same,percentage reduction in glucose AUC compared to vehicle,"db/db mice; 1 mg/kg sc, OGTT +72 hrs",41%*
same,percentage reduction in glucose AUC compared to vehicle,"db/db mice; 1 mg/kg sc, OGTT +96 hrs",12%
same,Bioavailability,[2],65%
same,Half-life after intravenous administration,[2]; iv,13.8
same,Half-life after subcutaneous administration,[2]; sc,18.6
same,Bioavailability,[3],81%
same,Half-life after intravenous administration,"[3]; iv, 0.3 mg/kg",4.9 h
same,Kd,CSA,2000 nM
same,Kd,HSA,600 nM
